Where a name gives a salt, the structure may show the parent alone. Read-outs that look alike come from different tables or passages of the source.

The record followed here is US20250144067A1, “PERSONALIZED STARVATION THERAPY FOR CANCER” (Faeth Therapeutics, Inc., priority 2021, published 2025).

The test system of test [1] is NCI-H292 lung cancer cells. Description: FDA drug screening, complete media vs cholesterol-free media with simvastatin (TABLE 2). It is filed as cell-based, human.
Test [2] relates to NCI-H292 lung cancer cells. Description: FDA drug screening, complete media vs cholesterol-free media without statin (TABLE 1). Format: cell-based, human.
Where [3] appears, read: complete media vs cholesterol-free media + simvastatin (0.04 μM), >0 enhanced anti-cancer activity, about 0 neutral, <0 antagonist.
Where [4] appears, read: Complete minus Cholesterol-free, greater than 0 enhanced anti-cancer activity, about 0 neutral, below 0 antagonist.
[5] abbreviates: NCI-H292 cells, FDA drug library screen, cholesterol-free media without statin.
Where [6] appears, read: NCI-H292 cells, FDA drug library screen, complete media.
The mark [7] stands for this setting: NCI-H292 cells, cholesterol-free media with simvastatin 0.04 μM, FDA drug library screen (TABLE 2).
[8] abbreviates: NCI-H292 cells, complete media, FDA drug library screen (TABLE 2).
Setting [9] is: complete media minus cholesterol-free media + simvastatin (0.04 μM), >0 enhanced anti-cancer activity, about 0 neutral, <0 antagonist.
Where [10] appears, read: Complete minus Cholesterol-free, >0 enhanced anti-cancer activity, about 0 neutral, <0 antagonist.
[11] abbreviates: NCI-H292 cells, cholesterol-free media without statin.
Setting [12] is: NCI-H292 cells, FDA library drug in cholesterol-free media with simvastatin 0.04 μM.
The mark [13] stands for this setting: NCI-H292 cells, FDA library drug in complete media.
Where [14] appears, read: complete vs cholesterol-free media, greater than 0 enhanced anti-cancer activity, about 0 neutral, below 0 antagonists.
Setting [15] is: complete media minus cholesterol-free media + simvastatin, >0 enhanced anti-cancer activity, about 0 neutral, <0 antagonist.
[16] abbreviates: NCI-H292 cells, cholesterol-free media without statin, FDA drug library screen.
The mark [17] stands for this setting: NCI-H292 cells, complete media, FDA drug library screen.
The mark [18] stands for this setting: NCI-H292 cells, cholesterol-free media with simvastatin 0.04 μM, cell growth value in FDA drug screen.
Setting [19] is: NCI-H292 cells, complete media, cell growth value in FDA drug screen.

As for `CC(=O)Oc1cccc2c1C(=O)c1c(OC(C)=O)cc(C(=O)O)cc1C2=O` [Diacerein], the “Cholesterol-free media + simvastatin (0.04 μM)” value in test [1] (NCI-H292 cells, drug in cholesterol-free media with simvastatin 0.04 μM) stood at 1.08. Also, in test [1] (NCI-H292 cells, drug in complete media), the “Complete Media” value came out at 0.9105. Also, the Difference in test [1] (setting [3]) is reported as −0.17; in test [2] (setting [4]), −0.13. The Cholesterol-free in test [2] (setting [5]) is reported as 1.078. The compound further showed a Complete in test [2] (setting [6]) of 0.9444.
For the compound `Cc1[nH]c(=O)c(C#N)cc1-c1ccc2nccn2c1` [Olprinone (Hydrochloride)], in test [1] (setting [7]), the “Cholesterol-free media + simvastatin (0.04 μM)” value is recorded as 1.653. Also, the “Complete Media” value in test [1] (setting [8]) was 1.64. Also, the Difference in test [1] (setting [9]) is −0.01; in test [2] (setting [10]) it was −0.27. Moreover, the Cholesterol-free in test [2] (setting [11]) is reported as 1.142. The same compound displayed a Complete in test [2] (NCI-H292 cells, complete media) of 0.8745.
In the case of `Cc1nc(Nc2ncc(C(=O)Nc3c(C)cccc3Cl)s2)cc(N2CCN(CCO)CC2)n1` [Dasatinib (hydrochloride)], the “Cholesterol-free media + simvastatin (0.04 μM)” value in test [1] (setting [7]) was 0.2818. Also, the “Complete Media” value in test [1] (setting [8]) stood at 0.268. Besides, the values for the Difference in test [1] (setting [9]) and in test [2] (setting [4]) were −0.01 and −0.10, respectively. Moreover, in test [2] (setting [5]), the Cholesterol-free was determined as 0.3831. This compound also gave a Complete in test [2] (setting [6]) of 0.2841.
Consider `CCCCC[C@H](O)CC[C@@H]1[C@H]2Cc3cccc(OCC(=O)O)c3C[C@H]2C[C@H]1O` [Treprostinil], for which the “Cholesterol-free media + simvastatin (0.04 μM)” value in test [1] (setting [12]) amounted to 1.177. Also, in test [1] (setting [13]), the “Complete Media” value amounted to 0.8507. The Difference in test [1] (setting [3]) is reported as −0.33; in test [2] (Complete minus Cholesterol-free, greater than 0 enhanced anti-cancer activity, about 0 neutral, below 0 antagonists), −0.50. Moreover, the Cholesterol-free in test [2] (NCI-H292 cells in cholesterol-free media without statin) is on record as 1.45. This compound returned a Complete in test [2] (NCI-H292 cells in complete media) of 0.9512.
On to `Cc1cc2c(s1)Nc1ccccc1N=C2N1CCN(C)CC1` [Olanzapine], for which, in test [1], the “Cholesterol-free media + simvastatin (0.04 μM)” value is recorded as 1.722, the “Complete Media” value is listed as 1.489 and the Difference is given as −0.23. Also, in test [2], the Cholesterol-free was 0.9635, the Complete amounted to 0.9217 and the Difference is on record as −0.04.
As for `CO[C@H]1/C=C/O[C@@]2(C)Oc3c(C)c([O-])c4c(O)c(cc(O)c4c3C2=O)NC(=O)/C(C)=C\C=C\[C@H](C)[C@H](O)[C@@H](C)[C@@H](O)[C@@H](C)[C@H](OC(C)=O)[C@@H]1C.[Na+]` [Rifamycin (sodium)], in test [1] (setting [12]), the “Cholesterol-free media + simvastatin (0.04 μM)” value is recorded as 1.045. In addition, in test [1] (setting [13]), the “Complete Media” value is reported as 0.7505. In addition, the Difference in test [1] (setting [3]) is given as −0.29; in test [2] (setting [14]) it was −0.44. In test [2] (setting [11]), this compound had a Cholesterol-free of 2.314. This compound gave a Complete in test [2] (NCI-H292 cells, complete media) of 1.878.
On to `COC(=O)N[C@H](C(=O)N1CCC[C@H]1c1nc(-c2ccc(-c3ccc(-c4c[nH]c([C@@H]5CCCN5C(=O)[C@@H](NC(=O)OC)C(C)C)n4)cc3)cc2)c[nH]1)C(C)C` [Daclatasvir], for which the “Cholesterol-free media + simvastatin (0.04 μM)” value in test [1] (NCI-H292 cells, FDA drug library screen, cholesterol-free media with simvastatin 0.04 μM) stood at 0.9463. In test [1] (setting [6]), the “Complete Media” value came out at 1.136. The Difference was found to be 0.19 in test [1] (setting [15]) and 0.04 in test [2] (setting [10]). Moreover, the Cholesterol-free in test [2] (setting [16]) came out at 0.703. The compound further came in with a Complete in test [2] (setting [17]) of 0.7437.
Take `O=c1[nH]c2ccccc2n1CCN1CCN(c2cccc(C(F)(F)F)c2)CC1` [Flibanserin]: the “Cholesterol-free media + simvastatin (0.04 μM)” value in test [1] (setting [18]) came out at 1.01. The “Complete Media” value in test [1] (setting [19]) was 1.089. Besides, the Difference in test [1] (setting [15]) is reported as 0.08; in test [2] (setting [14]), −0.40. Also, the Cholesterol-free in test [2] (setting [11]) is 1.364. For the same compound, the Complete in test [2] (NCI-H292 cells, complete media) came out at 0.9648.
Take `CC(=O)Oc1c(C)cc(OCC(O)CNC(C)C)c(C)c1C` (stereo not drawn) [Metipranolol hydrochloride]: in test [1] (setting [18]), the “Cholesterol-free media + simvastatin (0.04 μM)” value is given as 0.8039. The “Complete Media” value in test [1] (setting [19]) is 0.8617. In addition, the Difference in test [1] (setting [15]) is recorded as 0.06; in test [2] (setting [10]) it was 0.05. Besides, the Cholesterol-free in test [2] (setting [16]) was determined as 0.8441. In test [2] (setting [17]), this compound came in with a Complete of 0.893.
As for `CCN(CC)CCNC(=O)c1c(C)[nH]c(/C=C2\C(=O)Nc3ccc(F)cc32)c1C` [Sunitinib], in test [1] (setting [12]), the “Cholesterol-free media + simvastatin (0.04 μM)” value is recorded as 1.48. The “Complete Media” value in test [1] (setting [13]) amounted to 1.121. In addition, the figures for the Difference in test [1] (setting [3]) and in test [2] (setting [10]) were −0.36 and −0.01, respectively. This compound also displayed a Cholesterol-free in test [2] (setting [16]) of 0.5331. Besides, the Complete in test [2] (setting [17]) stood at 0.523.
